ChEMBL document CHEMBL1777753, “Discovery of indeno[1,2-c]quinoline derivatives as inhibitors of osteoclastogenesis induced by receptor activator of NF-κB ligand (RANKL)” (J Med Chem, 2011)
Calls of active or inactive are those of the source. No cut-off for these calls is given here.

Legend:
RAW264.7 [1] = test: Inhibition of RANKL-induced osteoclastogenesis in mouse RAW264.7 cells assessed as decrease in TRAP-positive multi-nucleated cells after 5 days; format: functional, cell-based; settings: RAW264.7, 120 h
[2] = Cytotoxicity against mouse RAW264.7 cells assessed as cell survival rate at 10 uM by MTT assay; format: cell-based; settings: read-out: Survival
RAW264.7 [3] = test: Ratio of EGCG IC50 for compound IC50 for inhibition of RANKL-induced osteoclastogenesis in mouse RAW264.7 cells; format: functional
RAW264.7 [4] = test: Inhibition of RANKL-induced osteoclastogenesis in mouse RAW264.7 cells assessed as decrease in TRAP-positive multi-nucleated cells at 10 uM after 5 days; format: functional
RAW264.7 [5] = test: Inhibition of RANKL-induced osteoclastogenesis in mouse RAW264.7 cells; format: functional, cell-based
[6] = Growth inhibition against human BT-483 cells; format: functional
SAS = test: Growth inhibition against human SAS cells; format: functional
A549 = test: Growth inhibition against human A549 cells; format: functional

SMILES | IC50 (RAW264.7 [1]) [µM] | viability at 10 µM [2] [%] | also measured
C=CCn1c(=O)c2c(c3ccccc31)C(=O)c1cc(OC)ccc1-2 | > 20 | – | –
COc1ccc2c(c1)C(=O)c1c-2cnc2ccccc12 | 1.43 | 25.3 | Ratio IC50 (RAW264.7 [3]): 20
COc1ccc2c(c1)/C(=N\O)c1c-2c(O)nc2ccccc12 | 9.11 | 85.2 | –
C=CCOc1ccc2c(c1)C(=O)c1c-2c(OCC=C)nc2ccccc12 | 5.7 | 75.1 | inhibition (RAW264.7 [4]): Active
COc1ccc2c(c1)C(=O)c1c-2c(SC)nc2ccccc12 | 2.58 | 86.6 | inhibition (RAW264.7 [4]): Active
CO/N=C1\c2cc(OC)ccc2-c2c(OC)nc3ccccc3c21 | 7.97 | 62.3 | –
O=C1c2cc(O)ccc2-c2c(O)nc3ccccc3c21 | 15.3 | 16.8 | –
C#CCOc1ccc2c(c1)C(=O)c1c-2c(=O)n(CC#C)c2ccccc12 | > 20 | – | –
Cc1ccc(-n2c(=O)n3n(c2=O)C2C(=CC3)C(C)(C)Oc3cc(O)ccc32)cc1 (configuration not stated) | – | – | IC50 (RAW264.7 [5]): 6.97 µM
C#CCOc1ccc2c(c1)C(=O)c1c-2c(OCC#C)nc2ccccc12 | 9.46 | 30.9 | –
O=C(O[C@@H]1Cc2c(O)cc(O)cc2O[C@@H]1c1cc(O)c(O)c(O)c1)c1cc(O)c(O)c(O)c1 [EPIGALOCATECHIN GALLATE] | 29.8 | – | –
CO/N=C1\c2cc(OC)ccc2-c2cnc3ccccc3c21 | 4.79 | 55.4 | –
COc1ccc2c(c1)/C(=N\O)c1c-2c(OC)nc2ccccc12 | 8.44 | 46.9 | –
CC(C)Oc1ccc2c(=O)c(-c3ccccc3)coc2c1 [IPRIFLAVONE] | – | 102 | inhibition at 10 µM (RAW264.7 [4]; RAW264.7, 120 h): 31%
C=CCSc1nc2ccccc2c2c1-c1ccc(OC)cc1C2=O | 15.6 | 106 | –
COc1ccc2c(c1)C(=O)c1c-2c(O)nc2ccccc12 | > 20 | – | –
CNc1nc2ccccc2c2c1-c1ccc(OC)cc1C2=O | 5.58 | 25.9 | –
CO/N=C1\c2cc(OC)ccc2-c2c(NOC)nc3ccccc3c21 | 1.58 | 105 | inhibition (RAW264.7 [4]): Active
CCOc1nc2ccccc2c2c1-c1ccc(OC)cc1C2=O | > 20 | – | –
COc1ccc2c(c1)/C(=N\OCCN1CCCC1)c1c-2c(O)nc2ccccc12 | – | – | GI50 [6]: 0.79 µM; GI50 (SAS): 0.84 µM; GI50 (A549): 0.89 µM
COc1ccc2c(c1)C(=O)c1c-2c(N)nc2ccccc12 | > 20 | – | –
COc1ccc2c(c1)/C(=N\O)c1c-2cnc2ccccc12 | > 20 | – | –
C=CCOc1ccc2c(c1)C(=O)c1c-2c(=O)n(CC=C)c2ccccc12 | > 20 | – | –
C=CCOc1nc2ccccc2c2c1-c1ccc(OC)cc1C2=O | 15.4 | 105 | –
COc1ccc2c(c1)C(=O)c1c-2c(S)nc2ccccc12 | 13.8 | 63 | –
COc1ccc2c(c1)C(=O)c1c-2c(=O)n(C)c2ccccc12 | 11.5 | 66.6 | –
COc1ccc2c(c1)C(=O)c1c-2c(OC)nc2ccccc12 | 2 | 100 | inhibition (RAW264.7 [4]): Active; Ratio IC50 (RAW264.7 [3]): 15
